{
  "source": "ChEMBL document CHEMBL5113452",
  "about": "“Synthesis and biological evaluation of hybrids from optically active ring-opened 3-N-butylphthalide derivatives and 4-fluro-edaravone as potential anti-acute ischemic stroke agents” (Bioorg Med Chem, 2022)",
  "key": {"[1]": {"assay": "Toxicity in transient middle cerebral artery occlusion induced ischemia stroke Sprague-Dawley rat model assessed as change in body weight at 4.10 mg/kg, iv and measured after 24 hrs in presence of NBP", "format": "organism-based", "conditions": "in vivo, 4.1 mg/kg"}, "[2]": {"assay": "Elimination rate constant in Sprague-Dawley rat plasma at 4.53 mg/kg, iv and measured upto 24 hrs in presence of S-NBP by LC-MS/MS analysis", "format": "ADME, organism-based"}, "[3]": {"assay": "Clearance in Sprague-Dawley rat plasma at 4.53 mg/kg, iv and measured upto 24 hrs in presence of S-NBP by LC-MS/MS analysis", "format": "ADME, organism-based"}, "Rattus norvegicus [4]": {"test_system": "Rattus norvegicus", "assay": "Neuroprotective activity against transient middle cerebral artery occlusion induced cerebral infraction Sprague-Dawley rat model assessed as decrease in cerebral infraction volume at 4.53 mg/kg, iv and measured after 24 hrs in presence of S-APB by TTC staining based assay", "format": "functional", "parameters": "scale not given: the % may be the effect or the level left"}, "[5]": {"assay": "C0 in Sprague-Dawley rat plasma at 4.53 mg/kg, iv and measured upto 24 hrs by LC-MS/MS analysis", "format": "ADME, organism-based"}, "Rattus norvegicus [6]": {"test_system": "Rattus norvegicus", "assay": "Neuroprotective activity against transient middle cerebral artery occlusion induced ischemia stroke Sprague-Dawley rat model assessed as increase in neuro-fucntional score at 4.10 mg/kg, iv and measured after 24 hrs in presence of NBP by longa's method", "format": "functional, organism-based", "conditions": "dose 4.1 mg/kg"}, "[7]": {"assay": "AUC (0-t) in Sprague-Dawley rat plasma at 4.53 mg/kg, iv and measured upto 24 hrs in presence of S-NBP by LC-MS/MS analysis", "format": "ADME, organism-based", "parameters": "time < 24 hrs, dose 4.53 mg/kg, route iv"}, "Rattus norvegicus [8]": {"test_system": "Rattus norvegicus", "assay": "Neuroprotective activity against transient middle cerebral artery occlusion induced cerebral infraction Sprague-Dawley rat model assessed as decrease in cerebral infraction volume at 4.53 mg/kg, iv and measured after 24 hrs by TTC staining based assay", "format": "functional", "parameters": "scale not given: the % may be the effect or the level left"}, "Rattus norvegicus [9]": {"test_system": "Rattus norvegicus", "assay": "Neuroprotective activity against transient middle cerebral artery occlusion induced ischemia stroke Sprague-Dawley rat model assessed as increase in neuro-fucntional score at 4.53 mg/kg, iv and measured after 24 hrs by longa's method", "format": "functional, organism-based"}, "[10]": {"assay": "Cmax in Sprague-Dawley rat plasma at 4.53 mg/kg, iv and measured upto 24 hrs in presence of S-NBP by LC-MS/MS analysis", "format": "ADME, organism-based", "parameters": "time < 24 hrs, dose 4.53 mg/kg, route iv"}, "[11]": {"assay": "Cmax in Sprague-Dawley rat plasma at 4.53 mg/kg, iv and measured upto 24 hrs by LC-MS/MS analysis", "format": "ADME, organism-based", "parameters": "dose 4.53 mg/kg, time < 24 hrs, route iv"}, "Rattus norvegicus [12]": {"test_system": "Rattus norvegicus", "assay": "Neuroprotective activity against transient middle cerebral artery occlusion induced ischemia stroke Sprague-Dawley rat model assessed as increase in neuro-fucntional score at 4.53 mg/kg, iv and measured after 24 hrs in presence of S-APB by longa's method", "format": "functional, organism-based"}, "[13]": {"assay": "AUMC (0-infinity) in Sprague-Dawley rat plasma at 4.53 mg/kg, iv and measured upto 24 hrs by LC-MS/MS analysis", "format": "ADME, organism-based", "conditions": "in vivo"}, "[14]": {"assay": "Clearance in Sprague-Dawley rat plasma at 4.53 mg/kg, iv and measured upto 24 hrs by LC-MS/MS analysis", "format": "ADME, organism-based"}, "[15]": {"assay": "AUMC (0-infinity) in Sprague-Dawley rat plasma at 4.53 mg/kg, iv and measured upto 24 hrs in presence of S-NBP by LC-MS/MS analysis", "format": "ADME, organism-based", "conditions": "in vivo"}, "[16]": {"assay": "C0 in Sprague-Dawley rat plasma at 4.53 mg/kg, iv and measured upto 24 hrs in presence of S-NBP by LC-MS/MS analysis", "format": "ADME, organism-based"}, "[17]": {"assay": "Half life in Sprague-Dawley rat plasma at 4.53 mg/kg, iv and measured upto 24 hrs in presence of S-NBP by LC-MS/MS analysis", "format": "ADME, organism-based"}, "[18]": {"assay": "AUC (0-infinity) in Sprague-Dawley rat plasma at 4.53 mg/kg, iv and measured upto 24 hrs in presence of S-NBP by LC-MS/MS analysis", "format": "ADME, organism-based", "parameters": "time < 24 hrs, dose 4.53 mg/kg, route iv"}, "[19]": {"assay": "Volume of distribution at steady state in Sprague-Dawley rat plasma at 4.53 mg/kg, iv and measured upto 24 hrs in presence of S-NBP by LC-MS/MS analysis", "format": "ADME, organism-based", "conditions": "read-out: Vdss"}, "[20]": {"assay": "AUMC (0-t) in Sprague-Dawley rat plasma at 4.53 mg/kg, iv and measured upto 24 hrs in presence of S-NBP by LC-MS/MS analysis", "format": "ADME, organism-based", "conditions": "in vivo"}, "[21]": {"assay": "Elimination rate constant in Sprague-Dawley rat plasma at 4.53 mg/kg, iv and measured upto 24 hrs by LC-MS/MS analysis", "format": "ADME, organism-based"}, "[22]": {"assay": "Toxicity in transient middle cerebral artery occlusion induced ischemia stroke Sprague-Dawley rat model assessed as change in body weight at 4.53 mg/kg, iv and measured after 24 hrs in presence of S-APB", "format": "organism-based", "conditions": "in vivo"}, "[23]": {"assay": "AUC (0-t) in Sprague-Dawley rat plasma at 4.53 mg/kg, iv and measured upto 24 hrs by LC-MS/MS analysis", "format": "ADME, organism-based", "parameters": "dose 4.53 mg/kg, time < 24 hrs, route iv"}, "Rattus norvegicus [24]": {"test_system": "Rattus norvegicus", "assay": "Neuroprotective activity against transient middle cerebral artery occlusion induced cerebral infraction Sprague-Dawley rat model assessed as decrease in brain edema at 4.53 mg/kg, iv and measured after 24 hrs in presence of […]", "format": "functional, organism-based"}, "[25]": {"assay": "Half life in Sprague-Dawley rat plasma at 4.53 mg/kg, iv and measured upto 24 hrs by LC-MS/MS analysis", "format": "ADME, organism-based"}, "[26]": {"assay": "Toxicity in transient middle cerebral artery occlusion induced ischemia stroke Sprague-Dawley rat model assessed as change in body weight at 4.53 mg/kg, iv and measured after 24 hrs", "format": "organism-based", "conditions": "in vivo"}, "[27]": {"assay": "MRT in Sprague-Dawley rat plasma at 4.53 mg/kg, iv and measured upto 24 hrs by LC-MS/MS analysis", "format": "ADME, organism-based"}, "Rattus norvegicus [28]": {"test_system": "Rattus norvegicus", "assay": "Neuroprotective activity against transient middle cerebral artery occlusion induced cerebral infraction Sprague-Dawley rat model assessed as decrease in brain edema at 4.10 mg/kg, iv and measured after 24 hrs in presence of NBP", "format": "functional, organism-based", "conditions": "dose 4.1 mg/kg"}, "[29]": {"assay": "MRT in Sprague-Dawley rat plasma at 4.53 mg/kg, iv and measured upto 24 hrs in presence of S-NBP by LC-MS/MS analysis", "format": "ADME, organism-based"}, "Rattus norvegicus [30]": {"test_system": "Rattus norvegicus", "assay": "Neuroprotective activity against transient middle cerebral artery occlusion induced cerebral infraction Sprague-Dawley rat model assessed as decrease in cerebral infraction volume at 4.10 mg/kg, iv and measured after 24 hrs in presence of NBP by TTC staining based assay", "format": "functional", "parameters": "scale not given: the % may be the effect or the level left", "conditions": "dose 4.1 mg/kg"}, "[31]": {"assay": "Volume of distribution at steady state in Sprague-Dawley rat plasma at 4.53 mg/kg, iv and measured upto 24 hrs by LC-MS/MS analysis", "format": "ADME, organism-based", "conditions": "read-out: Vdss"}, "[32]": {"assay": "AUMC (0-t) in Sprague-Dawley rat plasma at 4.53 mg/kg, iv and measured upto 24 hrs by LC-MS/MS analysis", "format": "ADME, organism-based", "conditions": "in vivo"}, "[33]": {"assay": "AUC (0-infinity) in Sprague-Dawley rat plasma at 4.53 mg/kg, iv and measured upto 24 hrs by LC-MS/MS analysis", "format": "ADME, organism-based", "parameters": "time < 24 hrs, dose 4.53 mg/kg, route iv"}},
  "note": "Active and inactive are the calls of the source. The rule behind the calls is not given here.",
  "data": [
    {"smiles": "CC1=NN(c2ccc(F)cc2)C(=O)C1", "values": [
      {"measurement": "Activity", "setting": "[1]", "value": "Non-Toxic"},
      {"measurement": "k el at 24 h", "setting": "[2]", "value": "3.75e-05", "unit": "s⁻¹"},
      {"measurement": "clearance", "setting": "[3]", "value": 27.4, "unit": "mL/min/kg"},
      {"measurement": "Activity", "setting": "Rattus norvegicus [4]", "value": 68.37, "unit": "%"},
      {"measurement": "C0 at 24 h", "setting": "[5]", "value": 4910, "unit": "ng/mL"},
      {"measurement": "Activity", "setting": "Rattus norvegicus [6]", "value": "Active"},
      {"measurement": "AUC(0-t) at 24 h", "setting": "[7]", "value": 2750, "unit": "ng·h/mL"},
      {"measurement": "Activity", "setting": "Rattus norvegicus [8]", "value": 32.46, "unit": "%"},
      {"measurement": "Activity", "setting": "Rattus norvegicus [9]", "value": "Active"},
      {"measurement": "Cmax", "setting": "[10]", "value": 6100, "unit": "ng/mL"},
      {"measurement": "Cmax", "setting": "[11]", "value": 2960, "unit": "ng/mL"},
      {"measurement": "Activity", "setting": "Rattus norvegicus [12]", "value": "Active"},
      {"measurement": "AUMC", "setting": "[13]", "value": 982, "unit": "hr.hr.ng/ml"},
      {"measurement": "clearance", "setting": "[14]", "value": 55.9, "unit": "mL/min/kg"},
      {"measurement": "AUMC", "setting": "[15]", "value": 5830, "unit": "hr.hr.ng/ml"},
      {"measurement": "C0 at 24 h", "setting": "[16]", "value": 12400, "unit": "ng/mL"},
      {"measurement": "half-life", "setting": "[17]", "value": 310, "unit": "min"},
      {"measurement": "AUC(0-inf)", "setting": "[18]", "value": 2780, "unit": "ng·h/mL"},
      {"measurement": "Vd", "setting": "[19]", "value": 3.45, "unit": "L/kg"},
      {"measurement": "AUMCt", "setting": "[20]", "value": 4690, "unit": "hr.hr.ng/ml"},
      {"measurement": "k el at 24 h", "setting": "[21]", "value": 0.000171, "unit": "s⁻¹"},
      {"measurement": "Activity", "setting": "[22]", "value": "Non-Toxic"},
      {"measurement": "AUC(0-t) at 24 h", "setting": "[23]", "value": 1350, "unit": "ng·h/mL"},
      {"measurement": "Activity", "setting": "Rattus norvegicus [24]", "value": "Active"},
      {"measurement": "half-life", "setting": "[25]", "value": 68.4, "unit": "min"},
      {"measurement": "Activity", "setting": "[26]", "value": "Non-Toxic"},
      {"measurement": "MRT", "setting": "[27]", "value": 43, "unit": "min"},
      {"measurement": "Activity", "setting": "Rattus norvegicus [28]", "value": "Active"},
      {"measurement": "MRT", "setting": "[29]", "value": 2.1, "unit": "h"},
      {"measurement": "Activity", "setting": "Rattus norvegicus [30]", "value": 57.7, "unit": "%"},
      {"measurement": "Vd", "setting": "[31]", "value": 2.39, "unit": "L/kg"},
      {"measurement": "AUMCt", "setting": "[32]", "value": 903, "unit": "hr.hr.ng/ml"},
      {"measurement": "AUC(0-inf)", "setting": "[33]", "value": 1360, "unit": "ng·h/mL"}
    ]}
  ]
}
